Where a name gives a salt, the structure may show the parent alone. Read-outs that look alike come from different tables or passages of the source.
What was measured:
Assay type in all cases: cell-based
CPOX = test: RNA-seq of CPOX expression in compound-treated primary human hepatocytes
Procedure: (§1) Human hepatocytes were obtained from two donors from Massachusetts General Hospital, namely MGH54 and MGH63, and one donor from Lonza, namely HUM4111B. Cryopreserved hepatocytes were cultured in plating media for 16 hours, transferred to maintenance media for 4 hours. Cultured on serum-free media for 2 hours, then a compound was added. The hepatocytes were maintained on the serum-free media for 16 hours prior to gene expression analysis. Primary human hepatocytes were stored in the vapor phase of a liquid nitrogen freezer (about −130° C.).
(§2) Human hepatocytes cultured as described above were plated in 24-well format, adding 375,000 cells per well in a volume of 500 ul plating medium. Four hours before treatment, cells were washed with PBS and the medium was changed to either: fresh maintenance medium (complete) or modified maintenance medium.
(§3) Compound stocks were prepared at 1000× final concentration and added in a 2-step dilution to the medium to reduce risk of a compound precipitating out of solution when added to the cells, and to ensure reasonable pipetting volumes. One at a time, each compound was first diluted 10-fold in warm (about 37° C.) modified maintenance medium (initial dilution=ID), mixed by vortexing, and the ID was diluted 100-fold into the cell culture (e.g. 5.1 ul into 1 well of a 24-well plate containing 0.5 mL medium). The plate was mixed by carefully swirling and after all wells were treated and returned to the incubator overnight. If desired, separate plates/wells were treated with vehicle-only controls and/or positive controls. If using multi-well plates, controls were included on each plate. After about 18 hours, cells were harvested for further analysis, e.g., ChIP-seq, RNA-seq, ATAC-seq, etc.
(§4) This protocol is a modified version of the following protocols: MagMAX mirVana Total RNA Isolation Kit User Guide (Applied Biosystems #MAN0011131 Rev B.0), NEBNext Poly(A) mRNA Magnetic Isolation Module (E7490), and NEBNext Ultra Directional RNA Library Prep Kit for Illumina (E7420) (New England Biosystems #E74901).
(§5) The MagMAX mirVana kit instructions (the section titled “Isolate RNA from cells” on pages 14-17) were used for isolation of total RNA from cells in culture. Two hundred μl of Lysis Binding Mix was used per well of the multiwell plate containing adherent cells (usually a 24-well plate).
(§6) For mRNA isolation and library prep, the NEBNext Poly(A) mRNA Magnetic Isolation Module and Directional Prep kit was used. RNA isolated from cells above was quantified, and prepared in […] of each sample in 50 μl of nuclease-free water. This protocol may be run in microfuge tubes or in a 96-well plate.
(§7) Standard QC were applied (read integrity, mapping statistics, library complexity, fragment bias) to remove unsatisfactory samples. […] Log 2 fold change and significance values were computed using PME count data (with replicates explicitly modeled versus pan-experiment controls), median ratio normalized, using maximum likelihood estimation rather than maximum a posteriori, and disabling the use of Cook's distance cutoff when determining acceptable adjusted p-values. […] RNA-seq signals were also normalized by read depth and visualized using the UCSC browser.
(§8) To identify small molecules that modulate target gene expression, primary human hepatocytes were prepared as a monoculture, and at least one small molecule compound was applied to the cells.
(§9) RNA-seq was performed to determine the effects of the compounds on the expression of the target genes in hepatocytes. Fold change was calculated by dividing the level of expression in the cell system that had been perturbed by the level of expression in an unperturbed system. Changes in expression having a p-value ≤0.05 were considered significant.
Significance was defined as an FPKM ≥0.5 a log 2(fold change) ≥0.3, and a q-value of ≤0.05.

APOL1 = test: RNA-seq of APOL1 expression in compound-treated primary human hepatocytes; conditions: Homo sapiens, Hepatocyte, 16 h; RNAseq, 10 uM dose (Table 20); read-out: APOL mRNA linear fold change
Procedure: as §1, §2, §3, §4, §5, §6
(§10) All pass filter reads from each sample were mapped against the human genome (assembly GRCh38/GCA_000001405.15 “no alt” analysis set merged with hs38d1/GCA_000786075.2) using two pass mapping via STAR version 2.5.3a (alignment parameters alignIntronMin=20; alignIntronMax=1000000; outFilterMismatchNmax=999; outFilterMismatchNoverLmax=0.05; outFilterType=BySJout; outFilterMultimapNmax=20; alignSJoverhangMin=8; alignSJDBoverhangMin=1; alignMatesGapMax=1000000) (Dobin et al., Bioinformatics (2012) 29(1):15-21). Genomic alignments were converted to transcriptome alignments based on reference transcript annotations from the Human GENCODE Gene Set release 24 (Harrow et al., Genome Res. (2012) 22(9): 1760-1774). Using unique and multimapped transcriptomic alignments, gene-level abundance estimates were computed using RSEM version 1.3.0 (Li and Dewey, BMC Bioinformatics (2011) 12:323) in a strand-aware manner, and including confidence interval sampling calculations, to arrive at posterior mean estimates (PME) of abundances (counts and normalized FPKM—fragments per kilobase of exon per million mapped fragments) from the underlying Bayesian model. Standard QC were applied (read integrity, mapping statistics, library complexity, fragment bias) to remove unsatisfactory samples.

UGT1A1 = test: RNA-seq of UGT1A1 expression in compound-treated primary human hepatocytes
Procedure, shortened: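 Cryopreserved primary human hepatocytes from three donors were plated in 24-well format, then treated with compound diluted from 1000× stocks in serum-free maintenance medium for about 16–18 h. Poly(A) RNA-seq log2 fold change was computed against vehicle/pan-experiment controls. Significance required FPKM ≥1, log2FC ≥0.5 and q ≤0.05.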

SLC37A4 = test: RNA-seq of SLC37A4 expression in compound-treated primary human hepatocytes
Procedure: as §1, §2, §3, §4, §5, §6, §10

ANGPTL3 = test: RNA-seq of ANGPTL3 expression in compound-treated primary human hepatocytes; conditions: additional compounds (Table 13), linear fold change
Procedure, shortened: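 Cryopreserved primary human hepatocytes from three donors, plated at 375,000 cells/well, switched to complete or modified maintenance medium, then dosed with compound (stocks at 1000× final) for about 18 h. Poly(A) mRNA was sequenced directionally, mapped to GRCh38 with STAR, and gene-level abundance (counts, FPKM) estimated with RSEM against GENCODE 24.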

FN1 = test: RNA-seq of FN1 expression in compound-treated primary human hepatocytes; conditions: perturbed vs unperturbed, significance FPKM ≥1, log 2(fold change) ≥0.5, q-value ≤0.05
Procedure: as §1, §2, §3, §4, §5, §6, §10

LECT2 = test: RNA-seq of LECT2 expression in compound-treated primary human hepatocytes
Procedure: as §1, §2, §3, §4, §5, §6, §7, §8, §9
Significance was defined as an FPKM ≥1, a log 2(fold change) ≥0.5, and a q-value of ≤0.05 for all targets except for CPOX.

[1] = RNA-seq, primary human hepatocytes, significance FPKM ≥0.5, log 2(fold change) ≥0.3, q-value ≤0.05

With `O=C(O)CC[C@H]1CC[C@@](c2cc(F)ccc2F)(S(=O)(=O)c2ccc(Cl)cc2)CC1` [MK-0752] the “CPOX Fold change (Log2)” value (CPOX) was 0.34 Log2.

Work on `Clc1ccc(C(c2ccccc2Cl)C(Cl)Cl)cc1` (stereo not drawn) [CPD446_Mitotane, Mitotane] yielded a mrna remaining at 10 µM (APOL1) of 65.5%.

`C[C@]12C[C@H](O)[C@H]3[C@@H](CCC4=CC(=O)CC[C@@]43C)[C@@H]1CC[C@@H]2C(=O)CO` [Corticosterone] was tested, and the “UGT1A1 Fold Change (Log2)” value (UGT1A1) was 0.86 Log2, the “SLC37A4 Fold Change (Log2)” value (SLC37A4) was 0.73 Log2 and the “CPOX Fold change (Log2)” value (CPOX; [1]) was 0.36 Log2.

`CCN(CC)CCNC(=O)c1c(C)[nH]c(/C=C2\C(=O)Nc3ccc(F)cc32)c1C` [Sunitinib] was tested, and the mrna remaining at 10 µM (APOL1) was 62% and the “ANGPTL3-LINEAR FOLD CHANGE” value (ANGPTL3) was 0.3035.

With `O=C(NCCCn1ccnc1)c1cc(-c2ccco2)on1` [SKL2001] the “FN1 Fold Change (Log2)” value (FN1) was −0.81 Log2, the “CPOX Fold change (Log2)” value (CPOX) was 0.45 Log2 and the “ANGPTL3-LINEAR FOLD CHANGE” value (ANGPTL3) was 0.4323.

For `CN(C)C/C=C/C(=O)Nc1cc2c(Nc3ccc(F)c(Cl)c3)ncnc2cc1O[C@H]1CCOC1` [Afatinib], the “FN1 Fold Change (Log2)” value (FN1) was −0.98 Log2, the “LECT2 Fold Change (Log2)” value (LECT2) was −0.75 Log2 and the “ANGPTL3-LINEAR FOLD CHANGE” value (ANGPTL3) was 0.3078.

In the case of TNF-a, the “SLC37A4 Fold Change (Log2)” value (SLC37A4) was 0.64 Log2.

In the case of `CCc1nn(CCCN2CCN(c3cccc(Cl)c3)CC2)c(=O)n1CCOc1ccccc1` [Nefazodone], the “CPOX Fold change (Log2)” value (CPOX) was 0.35 Log2.

For `CN1C(=O)c2sccc2N(C)c2nc(Nc3ccc(S(N)(=O)=O)cc3)ncc21` [XMU-MP-1], the “CPOX Fold change (Log2)” value (CPOX) was 0.37 Log2.

`CC1OC2(CS1)CN1CCC2CC1` (stereo not drawn) [CPD341_Cevimeline, Cevimeline] was tested, and the mrna remaining at 10 µM (APOL1) was 65.5%.

`CCOC(=O)C1=C(COCCN)NC(C)=C(C(=O)OC)C1c1ccccc1Cl` (stereo not drawn) [Amlodipine Besylate] was tested, and the “FN1 Fold Change (Log2)” value (FN1) was −1.22 Log2, the “LECT2 Fold Change (Log2)” value (LECT2) was −0.55 Log2 and the “ANGPTL3-LINEAR FOLD CHANGE” value (ANGPTL3) was 0.3035.

`CC(=O)N(O)CCCCCNC(=O)CCC(=O)N(O)CCCCCNC(=O)CCC(=O)N(O)CCCCCN` [Deferoxamine mesylate] was tested, and the “CPOX Fold change (Log2)” value (CPOX) was 0.37 Log2.

For `CN[C@H]1CC[C@@H](c2ccc(Cl)c(Cl)c2)c2ccccc21` [Sertraline HCl], the mrna remaining at 10 µM (APOL1) was 64.6% and the “ANGPTL3-LINEAR FOLD CHANGE” value (ANGPTL3) was 0.3816.

In the case of `C[N+]1(C)CCC(OC(=O)C(O)(c2ccccc2)C2CCCC2)C1` (stereo not drawn) [Glycopyrrolate], the “CPOX Fold change (Log2)” value (CPOX; [1]) was 0.31 Log2.

Reference: patent publication US20210161997A1, “TREATING DISEASES VIA TARGETED MODULATION OF GENE SIGNALING NETWORKS” (Camp4 Therapeutics Corporation, priority 2018, published 2021)
